Results reported in patent publication US20100062012A1, “Negative Genetic Regulation of Cancer Cell Renewal in Synergy with Notch- or Numb-Specific Immunotherapy” (priority 2007, published 2010).
Counter-ions that a name gives are not always drawn. Peptide text beside a SMILES is read from it. * marks the point of attachment. Cbz = O=C(OCc1ccccc1)*

Legend:
MCF7 [1] = assay: MTT inhibition of proliferation; format: cell-based; conditions: Homo sapiens, 72 h
From the text: (§1) Inhibition of proliferation of tumor cell lines by anticancer drugs.

MIA-PaCa-2 [2] = assay: MTT inhibition of proliferation; format: cell-based; conditions: Homo sapiens; MIA-PaCa-2, MTT, 72 h
From the text: as §1

PANC-1 [3] = assay: MTT inhibition of proliferation; format: cell-based; conditions: Homo sapiens; PANC-1, MTT, 72 h
From the text: as §1

AsPC-1 [4] = assay: MTT inhibition of proliferation; format: cell-based, human; conditions: for IC50: AsPC-1, MTT, 72 h
From the text: as §1

SKOV-3 [5] = assay: MTT inhibition of proliferation; format: cell-based, human; conditions: SKOV-3, MTT
From the text: as §1

AsPC-1 [6] = assay: Flow cytometry of CSt-C markers after culture with drugs; format: cell-based, human; conditions: AsPC-1 after culture with drug
Procedure: (§2) Flow cytometery analysis. All cells were cultured with Gem at 2×IC50 of gemcitabine for 10 days. Cultured cells (2×10^5) were washed in cold-PBS followed by blocking with 20 μL of 1 mg/mL of human IgG (Sigma, Saint Louis, Mo.) for 1 hour on ice. This step was necessary to inhibit non-specific binding of immunoglobulins during staining. Cells were then triple-stained with antibodies against ESA, CD44, and CD24. Analysis was performed with Becton Dickinson FACSCalibur and Cell Quest software (Becton Dickinson). Cells were gated on ESA+ population. Expression of CD24 and CD44 was examined in gated ESA+ cells as we described (26). The population of the ESA+, CD44hi and CD24low/− cells was calculated as percent of total cells and total ESA+ cells. All cell lines were also stained with a MIC-A/B and CD133, and analyzed as above.

MCF7 [7] = assay: as above; format: cell-based, human; conditions: for cells harvested: after culture of 3×10^6 MCF-7 cells
Procedure: as §2

MIA-PaCa-2 [8] = assay: as above; format: cell-based, human; conditions: for % CD44hi CD24- in ESA+ cells / % CD44hi CD24hi in ESA+ cells / % CD44hi CD24low in ESA+ cells / % CSt-like-C / % ESA+: MIA-PaCa-2 after culture with drug
Procedure: as §2

PANC-1 [9] = assay: as above; format: cell-based, human
Procedure: as §2

SKOV-3 [10] = assay: as above; format: cell-based, human
Procedure: as §2

MCF7 cells = assay: Stimulation of MCF7 / GEMRes MCF7 by DLL4; format: cell-based, human
Procedure: Stimulation of GEMRes MCF7 by DLL4. GEMRes MCF7 were obtained after culture with 0.3 uM GEM for 7 weeks. MCF7 were stimulated for 24 hrs, in medium containing estradiol, fibroblast growth factor in the presence or absence of DLL4, as described (40).

MIA-PaCa-2 [11] = assay: Flow cytometry of NKG2D ligands MIC-A/B in drug-resistant cells; format: cell-based, human; conditions: MIA PaCa-2, FIG. 7A
Procedure: as §2
To address the hypothesis that drug-resistant cancer cells are more sensitive to cellular immune effectors, we quantified expression of NKG2D ligands, MIC-A and -B (58, 59). ESA^+ MIA-PaCa-2 cells were analyzed for MIC-A/B. MCF7 cells were analyzed with CD44, CD24 and MIC-A/B (FIG. 7B), because almost all MCF7 cells (95% and more) expressed ESA.

MCF7 [12] = assay: Quantitative immunoblot of Notch and Numb proteins with or without GEM; format: cell-based, human
Procedure: (§3) Western blot analysis. Cell lysates of live MIA-PaCa-2, MCF7, and SKOV-3 were prepared as we described (74) after trypsin treatment of cultures. This procedure eliminated dead and dying cells. Cellular proteins were resolved by SDS-PAGE and transferred to a polyvinylidene difluoride membrance. Immuno-blotting and quantification was performed as we described (74). […] Notch signals promote survival and proliferation of normal stem cells. Notch signals are mediated by truncated intracellular domain (NICD), which activate transcription in the nucleus. Numb antagonizes Notch signal by inducing degradation of Notch (60, 13). Mammalian Numb has four splicing isoforms, which are divided into two types (Numb^L and Numb^S) based on the presence or absence of a 49 amino acid insert (5 kDa) in the proline-rich region (PRR) in the C-terminus. It is unclear whether Numb^L or Numb^S is a significant antagonist of Notch. To characterize expression of Notch and Numb proteins we performed quantitative immunoblot analysis of proteins in the lysates of live MIA-PaCa-2 and MCF7 cultured with or without GEM. (FIG. 9).

MIA-PaCa-2 [13] = assay: as above; format: cell-based, human
Procedure: as §3

MIA-PaCa-2 [14] = assay: Flow cytometry of CSt-C markers after culture with drugs; format: cell-based, human; conditions: starting from 3.0×10^6 Mia-PaCa-2 cells
breast tumors = conditions: reference 14; cited from earlier work
Ovarian and PC = assay: CD44+ CD24lo cells after taxol; format: cell-based; conditions: Ovarian and PC treated
SKOV3.A2 cells = assay: IFN-g production by Numb-1 peptide activated PBMC on SKOV3.A2 cells; format: cell-based, human; conditions: presentation of Numb-1(87-95) peptide; 24 h and 48 h
Procedure: FIG. 11. (A). SKOV3.A2 cells present the Numb-1 (87-95) peptide to Numb-1 peptide activated PBMC. Substantially higher, by 2-fold IFN-g production by Numb-1-peptide activated PBMC than by Notch peptides activated PBMC. Note that at 48 h the amount of IFN g produced by the two Notch peptide activated cell lines and the non-specifically, IL-2-activated cell lines was low and similar. Only Notch peptide, 2112-2120, can be presented by HL-A2 after Notch digestion by proteasome. (the program paproc.de). (B). Western analysis of Notch and Numb protein expression in SKOV3. […] A part of Numb is phosphorylated. A small part of Numb was phosphorylated at the Ser^283. A large part of Numb was phosphorylated at the Ser^264. […] The closed symbols indicate are 24 h measurements, the open symbols indicate 48 h measurements.

SMILES: Nc1ccn([C@@H]2O[C@H](CO)[C@@H](O)C2(F)F)c(=O)n1 [GEM, gemcitabine hydrochloride]
- IC50 (MCF7 [1]): 430 nM
- IC50 (MIA-PaCa-2 [2]): 300 nM
- IC50 (PANC-1 [3]): 350 nM
- IC50 (AsPC-1 [4]; hydrochloride): 20 nM
- IC50 (AsPC-1 [4]; Homo sapiens, ASPC1, 72 h): < 20 nM
- IC50 (SKOV-3 [5]; Homo sapiens, SK-OV-3, 72 h): < 20 nM
- IC50 (SKOV-3 [5]; 72 h, hydrochloride): 16 nM
- % CD44hi CD24- in ESA+ cells (AsPC-1 [6]): 19.3%
- % CD44hi CD24hi in ESA+ cells (AsPC-1 [6]): 20.1%
- % CD44hi CD24low in ESA+ cells (AsPC-1 [6]): 58.2%
- % CSt-like-C (AsPC-1 [6]): 57.6%
- % ESA+ (AsPC-1 [6]): 98.9%
- change of CSt-like-C population (MCF7 [7]; MCF7): increased
- increase of ESA+ CD44hi CD24low and CD133+ populations in GEMRes population vs entire population (MCF7 [7]; MCF7): 3-5 fold
- % CD44hi CD24- in ESA+ cells (MCF7 [7]; MCF7 after culture with drug): 0.3%
- % CD44hi CD24hi in ESA+ cells (MCF7 [7]; MCF7 after culture with drug): 10.2%
- % CD44hi CD24low in ESA+ cells (MCF7 [7]; MCF7 after culture with drug): 6.3%
- % CSt-like-C (MCF7 [7]; MCF7 after culture with drug): 6.3%
- % ESA+ (MCF7 [7]; MCF7 after culture with drug): 95.4%
- cells harvested (MCF7 [7]): 0.6 ×10^6
- change of CSt-C (CSt-like-C) population (MIA-PaCa-2 [8]; MIA-PaCa-2): increased
- % CD44hi CD24- in ESA+ cells (MIA-PaCa-2 [8]): 1.1%
- % CD44hi CD24hi in ESA+ cells (MIA-PaCa-2 [8]): 12.2%
- % CD44hi CD24low in ESA+ cells (MIA-PaCa-2 [8]): 43.2%
- % CSt-like-C (MIA-PaCa-2 [8]): 17.0%
- % ESA+ (MIA-PaCa-2 [8]): 39.5%
- increase of ESA+ CD44hi CD24low and CD133+ populations in GEMRes population vs entire population (MIA-PaCa-2 [8]; Mia-PaCa-2): 3-5 fold
- increase of ESA+ CD44hi CD24low and CD133+ populations in GEMRes population vs entire population (PANC-1 [9]; PANC-1): 3-5 fold
- % CD44hi CD24- in ESA+ cells (PANC-1 [9]; PANC-1 after culture with drug): 8.6%
- % CD44hi CD24hi in ESA+ cells (PANC-1 [9]; PANC-1 after culture with drug): 9.7%
- % CD44hi CD24low in ESA+ cells (PANC-1 [9]; PANC-1 after culture with drug): 50.0%
- % CSt-like-C (PANC-1 [9]; PANC-1 after culture with drug): 38.3%
- % ESA+ (PANC-1 [9]; PANC-1 after culture with drug): 76.7%
- increase of ESA+ CD44hi CD24low and CD133+ populations in GEMRes population vs entire population (SKOV-3 [10]; SKOV3): 3-5 fold
- % CD44hi CD24- in ESA+ cells (SKOV-3 [10]; SKOV-3 after culture with drug): 0.1%
- % CD44hi CD24hi in ESA+ cells (SKOV-3 [10]; SKOV-3 after culture with drug): 46.0%
- % CD44hi CD24low in ESA+ cells (SKOV-3 [10]; SKOV-3 after culture with drug): 51.5%
- % CSt-like-C (SKOV-3 [10]; SKOV-3 after culture with drug): 50.2%
- % ESA+ (SKOV-3 [10]; SKOV-3 after culture with drug): 97.5%
- GEMRes MCF7 cells in G1 (resting) phase (MCF7 cells): > 90%
- CD44hi CD24hi (% of cells) (MCF7 cells; MCF7): 19.7%
- CD44hi CD24hi (cell number) (MCF7 cells; MCF7): 0.26
- CD44hi CD24low (% of cells) (MCF7 cells; MCF7): (7.1%)
- CD44hi CD24low (cell number) (MCF7 cells; MCF7): 0.09 × 10^6
- ratio CD44hi CD24hi to CD44hi CD24low (MCF7 cells; MCF7): 2
- Stimulation Index (MCF7 cells; MCF7, harvested/seeded): 0.44
- Harvested cells (MCF7 cells; MCF7, seeded 3.0 x 10^6): 1.32 10^6
- number of cells expressing MICA and MICB in drug-resistant cells (MIA-PaCa-2 [11]): increased
- NECD expression increase, GEMRes vs GEMSens (MCF7 [12]): 73%
- NICD level decrease, GEMRes vs GEMSens (MCF7 [12]): 39%
- NumbL expression decrease, GEMRes vs GEMSens (MCF7 [12]): 29%
- NumbS decrease, GEMRes vs GEMSens (MCF7 [12]): 18%
- NECD expression increase, GEMRes vs GEMSens (MIA-PaCa-2 [13]): 18%
- NICD level increase, GEMRes vs GEMSens (MIA-PaCa-2 [13]): 35%
- NumbL expression increase, GEMRes vs GEMSens (MIA-PaCa-2 [13]): 50%
- NumbS decrease, GEMRes vs GEMSens (MIA-PaCa-2 [13]): 18%
- cells harvested (MIA-PaCa-2 [14]): 1.3 ×10^6 cells

SMILES: CC(C)C[C@@H](C=O)NC(=O)[C@H](CC(C)C)NC(=O)[C@H](CC(C)C)NC(=O)OCc1ccccc1 [MG132] (Cbz-Leu-Leu-Leu-aldehyde)
- low Numb levels after treatment (breast tumors): restored to high levels

SMILES: CC(=O)O[C@H]1C(=O)[C@@]2(C)[C@H]([C@H](OC(=O)c3ccccc3)[C@]3(O)C[C@H](OC(=O)[C@H](O)[C@@H](NC(=O)c4ccccc4)c4ccccc4)C(C)=C1C3(C)C)[C@]1(OC(C)=O)CO[C@@H]1C[C@@H]2O [PTX, paclitaxel]
- IC50 (MCF7 [1]): 4.5 nM
- IC50 (MIA-PaCa-2 [2]): 5.3 nM
- IC50 (PANC-1 [3]): 3.9 nM
- IC50 (AsPC-1 [4]; Homo sapiens, ASPC1, 72 h): 18.3 nM
- IC50 in AsPC-1 relative to PANC-1 (AsPC-1 [4]; most resistant vs most sensitive line): more than 4 fold
- IC50 (SKOV-3 [5]; Homo sapiens, SK-OV-3, 72 h): 4.7 nM
- change of CSt-like-C population (MCF7 [7]; MCF7): increased
- cells harvested (MCF7 [7]): 0.4 ×10^6
- % CD44hi CD24- in ESA+ cells (MIA-PaCa-2 [8]): 1.0%
- % CD44hi CD24hi in ESA+ cells (MIA-PaCa-2 [8]): 21.2%
- % CD44hi CD24low in ESA+ cells (MIA-PaCa-2 [8]): 23.1%
- % CSt-like-C (MIA-PaCa-2 [8]): 7.7%
- % ESA+ (MIA-PaCa-2 [8]): 33.2%
- number of cells expressing MICA and MICB in drug-resistant cells (MIA-PaCa-2 [11]): did not increase
- number of CD44+ CD24lo cells (Ovarian and PC): increased
- cells harvested (MIA-PaCa-2 [14]): 3.3 ×10^6 cells

SMILES: C[S+]([O-])c1ccc(-c2nc(-c3ccc(F)cc3)c(-c3ccncc3)[nH]2)cc1 (stereo not shown) [SB20380]
- effect of treatment of SKOV3.A2 cells on IFN-g production by the indicator cell line (SKOV3.A2 cells): weaker inhibitory effect

SMILES: CN[C@@H]1C[C@H]2O[C@@](C)([C@@H]1OC)n1c3ccccc3c3c4c(c5c6ccccc6n2c5c31)C(=O)NC4 [staurosporine]
- effect of treatment of SKOV3.A2 cells on IFN-g production by the indicator cell line (SKOV3.A2 cells): abolished
